Active and inactive are the calls of the source. How the calls were made is not given here.

The experiment deals with Perilipin-5 (Homo sapiens) + 1-acylglycerol-3-phosphate O-acyltransferase ABHD5 (Homo sapiens) (UniProt Q00G26+Q8WTS1). Briefly: blockers of ABHD5 binding to perilipin-5 – biochemical, luminescence, dose response (AID 651677). Conditions: ABHD5-PLIN5 interaction.
Perilipin-5 (Homo sapiens) + 1-acylglycerol-3-phosphate O-acyltransferase ABHD5 (Homo sapiens), sequence (Q00G26 whole entry, looked up): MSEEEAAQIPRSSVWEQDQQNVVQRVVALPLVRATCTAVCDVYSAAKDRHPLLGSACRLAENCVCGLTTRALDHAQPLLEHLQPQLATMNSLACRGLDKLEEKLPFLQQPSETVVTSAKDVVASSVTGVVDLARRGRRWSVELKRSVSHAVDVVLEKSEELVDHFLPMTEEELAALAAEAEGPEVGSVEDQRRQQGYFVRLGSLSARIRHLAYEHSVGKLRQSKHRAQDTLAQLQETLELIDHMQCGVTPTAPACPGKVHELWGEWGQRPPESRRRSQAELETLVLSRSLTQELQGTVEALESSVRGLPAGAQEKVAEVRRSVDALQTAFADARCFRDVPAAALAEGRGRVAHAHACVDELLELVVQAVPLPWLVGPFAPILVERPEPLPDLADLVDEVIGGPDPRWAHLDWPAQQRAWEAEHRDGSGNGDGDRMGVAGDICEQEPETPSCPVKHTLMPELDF
Perilipin-5 (Homo sapiens) + 1-acylglycerol-3-phosphate O-acyltransferase ABHD5 (Homo sapiens), sequence (Q8WTS1 whole entry, looked up): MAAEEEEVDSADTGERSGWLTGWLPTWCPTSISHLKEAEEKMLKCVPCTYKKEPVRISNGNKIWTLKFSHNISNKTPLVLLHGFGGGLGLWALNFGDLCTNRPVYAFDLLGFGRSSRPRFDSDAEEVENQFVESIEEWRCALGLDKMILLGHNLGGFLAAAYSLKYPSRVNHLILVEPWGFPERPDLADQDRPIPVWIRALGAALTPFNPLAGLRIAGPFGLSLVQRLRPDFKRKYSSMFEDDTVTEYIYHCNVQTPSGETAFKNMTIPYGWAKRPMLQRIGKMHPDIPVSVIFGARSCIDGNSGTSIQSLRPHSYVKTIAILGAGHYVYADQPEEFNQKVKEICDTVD

As to `CCOC(=O)c1c(NC(C)=O)sc2c1CCC(C=O)=C2Sc1ccccc1`, the IC50 is 2.4 µM.
For the compound `Cc1cccc(C)c1NC(=O)C(c1ccc(C(F)(F)F)cc1)n1c(=O)c(-c2ccco2)nc2ccccc21` (stereo not given), the IC50 is 2.22 µM.
As to `Cc1nc(-c2ccccc2)sc1C(=O)/C=C/c1ccccc1`, the IC50 was 2.79 µM.
For `C#CCN(C[C@@H]1[C@@H](OC(=O)NCC2CCCCC2)[C@@H](OC(=O)NCC2CCCCC2)Cn2c(=O)ccc(=O)n21)S(=O)(=O)c1ccc(C)cc1` the value was 3.6 µM; for `O=C(/C=C/Sc1ccccc1)c1ccc(Cl)cc1`, 3.38 µM; for `CC1=CC2C(C(O)CC3(C)C2CC(C)C32OCOC23COCO3)C2(C)C/C(=C\O)C(=O)C=C12` (stereo not given), 3.27 µM.
`NC(=O)CCN1CCN(CCOC2Cc3cc(Cl)ccc3Sc3ccccc32)CC1` (stereo not given): the IC50 result is “inactive”.
Turning to `Cc1cc(C)c(NC(=O)CN2CCN3CCCC3C2)c(C)c1` (stereo not given), the half-inhibitory concentration (IC50) was 9.27 µM.
With `O=C1CC(c2ccc(Cl)cc2)Oc2ccc(Cl)cc21` (stereo not given), the half-maximal inhibitory concentration (IC50) was 2.84 µM.
With `CC(=O)Oc1c(Br)cc(N(C(C)=O)S(=O)(=O)c2ccccc2)c2ccccc12`, the 50% inhibitory concentration (IC50) is 6.41 µM.
Next, `Cc1ccc(S(=O)(=O)N2C[C@H]3n4c(=O)ccc(=O)n4C[C@H](OC(=O)Nc4cccs4)[C@@]3(O)C2)cc1`: 7.93 µM.
For `O=C1C(=O)c2c(C(=O)c3ccccc3)coc2-c2ccccc21`, the concentration for half-maximal inhibition (IC50) is 2.93 µM.
With `O=C1NC(=O)N(Cc2ccc(F)cc2)C(=O)/C1=C\C=C\c1ccco1`, the concentration for half-maximal inhibition (IC50) is 1.36 µM.
As to `O=C(/C=C/c1ccc2c(c1)OCCCO2)c1ccccc1O`, the IC50 is 5.65 µM.
For the compound `CCOc1cc(/C=C2\CCC/C(=C\c3cc(Cl)c(O)c(OCC)c3)C2=O)cc(Cl)c1O`, the half-maximal inhibitory concentration (IC50) is 4.16 µM.

Source of the values: PubChem BioAssay AID651677 (The Scripps Research Institute Molecular Screening Center, 2012).
